The results in this text go back to PMC8692993, “PPARα and PPARγ activation is associated with pleural mesothelioma invasion but therapeutic inhibition is ineffective” (iScience, 2021).

Molecules are shown by their SMILES.

Usually IC50 stands for the concentration that gives 50% inhibition.

In experiment [1] the target is T1, PPARγ (Homo sapiens, UniProt P37231).
T1 sequence (P37231 238-503 limits assumed): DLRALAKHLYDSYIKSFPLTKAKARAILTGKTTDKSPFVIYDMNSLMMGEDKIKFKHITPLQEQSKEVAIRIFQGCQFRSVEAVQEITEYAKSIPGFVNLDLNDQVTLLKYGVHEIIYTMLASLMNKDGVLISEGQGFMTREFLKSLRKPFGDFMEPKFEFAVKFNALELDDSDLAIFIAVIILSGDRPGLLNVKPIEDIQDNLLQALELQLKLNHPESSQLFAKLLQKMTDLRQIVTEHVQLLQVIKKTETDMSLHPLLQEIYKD
In words: HG5LN reporter cell assay, PPARγ-mediated transcription. It counts as cell-based. Also on record: expressed in transfected cells; host or cells: HG5LN (HeLa-derived, GAL4RE-luciferase). From the text:
Nuclear receptors, including PPARα and γ, are ligand-inducible transcription factors that form heterodimers with retinoid X receptors and bind to specific DNA sites located in the enhancer/promoter region of target genes, releasing co-repressors and/or recruiting co-activators ([Wang, 2010]). We therefore assessed the functional consequences of the ligands on PPARα and γ-mediated transcriptional activation in reporter cell lines. These cell lines were generated as previously reported by a two-step transfection procedure ([Seimandi et al., 2005]). First, a stable cell line, HG5LN, expressing the reporter gene (GAL4RE-luciferase) was developed from the HeLa cell line. These cells were then transfected with a plasmid expressing the C-terminal ligand-binding domain of PPARα or γ fused to GAL4 DNA-binding domain. The parental HG5LN cells were used as a control to test non-specific modulation of luciferase expression by the small molecules investigated (Figure S4A). The HG5LN PPAR reporter cells therefore allow comparison of the functional activity at, and selectivity of different ligands for, PPARα and γ. […] As expected ([Abu Aboud et al., 2015]), GW6471 potently antagonized PPARα (Figure 4E and Table 1).
A transfected […] cell line HG5LN was used ([Balaguer et al., 2001]). These cells were cultured in Dubecco's modified Eagle's medium (DMEM-F12 Thermo Fisher Scientific) with phenol red and supplemented with 5% foetal calf serum, incubated at 37°C in a 5% CO2/95% air-humidified atmosphere. Luciferase assays were performed in DMEM-F12 (Thermo Fisher Scientific) without phenol red and supplemented with 5% dextran-coated charcoal-stripped FCS (test culture medium), puromycin (Thermo Fisher Scientific) 0.5 μg/mL and geneticin (Thermo Fisher Scientific) 1 mg/mL. Cells were seeded at a density of 5 x 10^4 cells/well and incubated for 8 h at 37°C in a 96-well plate white opaque tissue culture plates (Becton-Dickinson). Tested compounds were added in serial dilutions and incubated for 16 h at 37°C. After incubation, the medium containing the effectors was carefully removed and replaced by culture medium containing 3 x 10^−4 mol/L luciferin (Sigma Chemicals). After 5 min incubation at room temperature, the 96-well plate was then read with a Microbeta Wallac luminometer and the luminescence was measured in the living cells for 2 s. All experiments were performed in quadruplicate.

Experiment [2] has as its system AB1-Luc. Briefly: Intraperitoneal AB1-Luc mesothelioma model, bioluminescence and histology. The experiment is classed as in vivo, BALB/c mice. Particulars: for Tumor growth (bioluminescence, average radiance): versus controls. On the procedure: Cells were trypsinized and washed two times in phosphate buffer saline (PBS) and counted with trypan blue dye. For the SC tumour model, mice were shaved on the right-hand flank and inoculated with 5x10^5 AB1 or 1x10^6 AE17 cells suspended in 100 μL PBS. Tumour volume (mm^3) was monitored with callipers. For the IPL tumour model, mice were anaesthetised under continuous isofluorane and inoculated with 5 x 10^5 AB1 or 1 x 10^6 AE17 cells suspended in 200 μL PBS into the pleural space as previously described ([Lansley et al., 2015]) Tumour size was determined by weighting together the tumour with the lungs minus the weight of aged matched healthy lungs. For the IP tumour model, mice where inoculated in the intraperitoneal cavity on the right flank with 5x10^5 AB1-Luc cells suspended in 200 μL PBS. Tumour size was determined by in vivo imaging system (IVIS), see below. All mice were euthanized in accordance with animal ethics guidelines.
Female BALB/cJAusb mice (10–12 weeks) were inoculated IP with 5 x 10^5 AB1-Luc on their right flank. Mice were randomly allocated to the different groups on the first treatment day. Treatment with ABT + GW6471 or GW6471 alone started on day 4 after tumour inoculation. IP Injections and concentrations were used as previously described in the “Mouse pharmacokinetic studies” section in experimental model and subject details. Initial mouse weight was measured immediately before the first injection, and it was used to calculate weight change daily. Mice were dosed for a maximum of seven consecutive days. In vivo imaging system (IVIS) (see below) was performed on days 3 (before treatment), 7 (during treatment) and 11 (after treatment). Mice were euthanized on day 11 in accordance with animal ethics guidelines and organs were harvested for staining.
XenoLight D-Luciferin potassium salt (PerkinElmer, VIC, Australia) was used at a 150 mg/kg concentration dissolved in sterile PBS. Approximately 150 μL (15 mg/mL concentration) was injected subcutaneously per mouse. […]

On to `CCC(=O)NC[C@H](Cc1ccc(OCCc2nc(-c3ccccc3)oc2C)cc1)N/C(C)=C\C(=O)c1ccc(C(F)(F)F)cc1` [GW6471], for which the “Functionality, Type” value in experiment [1] is reported as “antagonist”. In experiment [1] (inhibition of agonism by 30 nM rosiglitazone, 16 h incubation, mean of 3 experiments ± SEM), the midpoint of inhibition, the IC50, lay at 210 ± 64 nM. Further, the “Tumor growth (bioluminescence, average radiance)” value in experiment [2] (GW6471 10 mg/kg IP daily from day 4, with ABT 50 mg/kg pre-treatment (ABT + GW6471)) is listed as “no significant effect on tumor growth”; in experiment [2] (GW6471 10 mg/kg IP daily from day 4, without ABT), “no significant effect on tumor growth”. In addition, the “Mesothelioma invasion and proliferation in vivo (histology)” value in experiment [2] (GW6471 with or without ABT, all mice showed invasion into intestine and pancreas) is “no impact on mesothelioma invasion and proliferation in vivo”.
